Structures can show the parent of a compound that is named as a salt.
Key:
[1] = system: patients hospitalized for acute heart failure (AHF); assay: Diuresis over 24 h during and after study drug infusion; assay type: in vivo, human
Excerpt: This study was a phase II, multicenter, randomized, double-blind, placebo-controlled, parallel group investigation, conducted at two sites in Italy and eight sites in China. All patients provided written informed consent. The study was approved by country regulatory authorities and by local institutional review boards. The trial is registered in the European Clinical Trials Database (EudraCT 2013-000540-26) and ClinicalTrials.gov (NCT02617446).
Patients were randomized 2:1 to istaroxime or placebo 24 h infusion and were enrolled in two sequential cohorts, the first with an istaroxime dose of 0.5 μg/kg/min and the second with an istaroxime dose of 1.0 μg/kg/min. At the end of cohort 1 enrollment, an independent Data Safety and Monitoring Board conducted an interim safety analysis of unblinded data before proceeding to cohort 2 enrollment. Inclusion criteria were: age ≥18 years, an ongoing hospitalization for AHF with dyspnoea at rest or minimal exertion and need for intravenous diuretic therapy (40 mg intravenous furosemide), SBP between 90 and 125 mmHg without signs or symptoms of peripheral hypoperfusion: LVEF ≤40%: intermediate to high E/e′ ratio by tissue Doppler echocardiography (10); brain natriuretic peptide (BNP) or N-terminal pro BNP (NT-proBNP) plasma levels ≥350 pg/mL or ≥1400 pg/mL, respectively, and presence of adequate echocardiographic windows. The main exclusion criteria were: concomitant or planned treatment with intravenous vasodilators, inotropes or vasopressors: treatment with oral digoxin (patients treated with digoxin within the last week could be randomized if the plasma concentration at screening was 0.5 ng/mL); acute coronary syndrome or stroke within the past 3 months: coronary artery bypass graft or percutaneous coronary intervention within the past month or planned in the next month: resting HR >120 bpm or <50 bpm: life-threatening ventricular arrhythmia or implantable cardioverter-defibrillator shock within the past month: fever 38° C.; serum creatinine 3.0 mg/dL or estimated glomerular filtration rate (eGFR) 30 mL/min/m2; serum potassium 5.3 mmol/L or 3.8 mmol/L; severe hepatic dysfunction.
The study design included a 24 h screening period, a 24 h study drug infusion phase (day 1), a post-treatment phase (days 2-4), and a follow-up visit at day 30 (FIG. 5). Patients could be enrolled at any time after admission. The use of oral medications was permitted during the study with the exception of digoxin. Intravenous diuretics were permitted during the treatment period at stable doses, unless changes were required due to clinically relevant variations of the patient's condition. If treatment with an inotrope was clinically necessary during the infusion period, the investigational product was discontinued. Echocardiography was performed according to international standards at screening, baseline (just before starting study drug infusion), 6, 24 h (just before infusion end), and 48 h after infusion start. Echocardiographic measurements at baseline, 6, 24, and 48 h were evaluated in a blinded fashion by a CoreLab located at the University and Civil Hospital of Brescia, Italy. E/e′ ratio was calculated as the ratio between the peak early diastolic mitral flow velocity (E wave) and the mean of the annular lateral (e′ lateral) and septal (e′ septal) velocities, according to standard guidelines.^20 Intraobserver and interobserver variability in E/e′ measurement was tested on the 15% of the recordings and is shown in FIG. 6. Self-reported dyspnoea was assessed using a 100 mm VAS, with zero representing the worst level of dyspnoea and 10 the best breathing condition. Twenty-four hour ECG monitoring was performed using a three-lead device (Mortara industries, Milwaukee, WI, USA) during the day of screening, the infusion period, and the day after (the latter was optional). Analysis was conducted by a blinded CoreLab (ICS Maugeri, Italy). […]

[2] = system: patients hospitalized for acute heart failure (AHF); set-up: species or system human; conditions: in vivo
Description: The primary efficacy endpoint was the change from baseline to 24 h after the start of the infusion in the E/e ratio assessed by tissue Doppler echocardiography. Secondary endpoints included the change from baseline to 24 h of other echocardiography parameters: LVEF, left ventricular end-systolic and end-diastolic volumes, stroke volume index, E, A, E/A ratio, and S′: changes in dyspnoea by visual analogue scale (VAS) and in NT-proBNP from baseline to 24 h: proportion of patients with hospital readmissions or emergency visits for cardiovascular reasons by day 30; proportion of patients with episodes of in-hospital worsening heart failure to day 4, and length of stay. In-hospital worsening heart failure was defined by the need to increase the dose or reinitiate intravenous therapy with diuretics and/or other inotropic agents to day 4. Safety endpoints were assessed throughout the study and included: incidence of adverse events (AEs): change in vital signs and in 12-lead electrocardiographic (ECG) parameters: incidence of clinically or haemodynamically significant episodes of supraventricular or ventricular arrhythmias detected by continuous ECG monitoring: standard laboratory parameters: renal function: cardiac troponin T (cTnT): incidence of cTnT elevations, and mortality at day 30. […]

[3] = intravenous infusion; cited from earlier work

## C[C@]12CCC(=NOCCN)C[C@@H]1C(=O)C[C@@H]1[C@@H]2CC[C@]2(C)C(=O)CC[C@@H]12 [Istaroxime, (E,Z)-3-((2-aminoethoxy)imino)androstane-6,17-dione hydrochloride]
[1]; 0.5 μg/kg/min, 0-24 h
  Diuresis, median: 2700 mL
[1]; 0.5 μg/kg/min, 24-48 h
  Diuresis, median: 1800 mL
[1]; 0.5 μg/kg/min, 48-72 h
  Diuresis, median: 1650 mL
[1]; 1.0 μg/kg/min, 0-24 h
  Diuresis, median: 1975 mL
[1]; 1.0 μg/kg/min, 24-48 h
  Diuresis, median: 1260 mL
[1]; 1.0 μg/kg/min, 48-72 h
  Diuresis, median: 1350 mL
[1]; compared to placebo
  Overall diuresis during the 24 h infusion: numerically higher
[2]
  Renal function measured by eGFR: generally increased
[3]
  half-time (washout after infusion termination): 60 min

Source: patent publication US12697343B2, “Intravenous istaroxime for the treatment of acute heart failure” (Seismic Pharmaceuticals Operations LLC, priority 2021, dated 2026)
